This is an account of results in ChEMBL document CHEMBL1240317, “Probing cell-division phenotype space and Polo-like kinase function using small molecules” (Nat Chem Biol, 2006).

SMILES strings stand for the structures. Active and inactive are the calls of the source. Unless noted, the calls are words filed in the database; no cut-off is given here.

The test system of experiment [1] is PtK2. In words: Inhibition of polo-like kinase 1 activity in rat kangaroo PtK2 cells expressing GFP-labeled alpha-tubulin assessed as interkinetochore distance at 33 uM after 45 mins. Type of experiment: cell-based. The following applies: Potorous tridactylus.
Experiment [2] concerns BSC-1. Put plainly: Induction of reduced mitotic index in african green monkey BSC1 cells at 20 uM after 4 hrs by immunocytochemistry. Type of experiment: functional, cell-based. The note with it: Chlorocebus aethiops.
The subject of experiment [3] is BSC-1. In words: Antimitotic activity against african green monkey BSC1 cells assessed as induction of monopolar spindles at 20 uM by immunofluorescence microscopy. Type of experiment: functional, cell-based. The following applies: Chlorocebus aethiops.
For experiment [4], the system named is BSC-1. Put plainly: Antimitotic activity against african green monkey BSC1 cells assessed as induction of sphere like organization at 2.5 uM by immunofluorescence microscopy. The note with it: Chlorocebus aethiops. Type of experiment: functional, cell-based.
Experiment [5] relates to BSC-1. In words: Antimitotic activity against african green monkey BSC1 cells assessed as induction of monopolar spindles by immunofluorescence microscopy. Format: functional, cell-based. The following applies: Chlorocebus aethiops.
Experiment [6] deals with T1, Serine/threonine-protein kinase PLK1 (Homo sapiens, UniProt P53350). Put plainly: Inhibition of recombinant polo-like kinase 1 activity by SDS-PAGE.
T1 sequence (P53350 whole entry): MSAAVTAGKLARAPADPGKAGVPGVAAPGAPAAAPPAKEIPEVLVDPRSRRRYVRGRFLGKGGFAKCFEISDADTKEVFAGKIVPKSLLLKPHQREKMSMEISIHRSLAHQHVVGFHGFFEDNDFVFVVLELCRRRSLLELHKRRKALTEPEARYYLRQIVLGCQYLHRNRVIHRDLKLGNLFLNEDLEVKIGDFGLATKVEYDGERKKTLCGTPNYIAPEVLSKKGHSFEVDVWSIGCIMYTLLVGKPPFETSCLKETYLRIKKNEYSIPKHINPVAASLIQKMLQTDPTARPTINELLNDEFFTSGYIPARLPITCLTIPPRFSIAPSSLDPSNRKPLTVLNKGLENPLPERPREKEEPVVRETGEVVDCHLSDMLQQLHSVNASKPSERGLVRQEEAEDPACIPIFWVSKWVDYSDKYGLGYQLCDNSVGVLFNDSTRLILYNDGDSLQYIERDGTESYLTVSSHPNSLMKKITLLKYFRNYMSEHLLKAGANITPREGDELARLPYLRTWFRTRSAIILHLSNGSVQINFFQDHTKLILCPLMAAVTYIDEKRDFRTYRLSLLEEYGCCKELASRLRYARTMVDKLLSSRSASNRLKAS
In experiment [7] the target is T1, Serine/threonine-protein kinase PLK1. In words: Inhibition of recombinant polo-like kinase 1 activity at 100 nM by SDS-PAGE.
Experiment [8] relates to BSC-1. In words: Induction of monopolar mitotic spindles in african green monkey BSC1 cells assessed as percentage of monopolar cells with two centrosomes at 5 uM after 4 hrs. Format: functional, cell-based. The following applies: Chlorocebus aethiops.
In experiment [9] the test system is BSC-1. Put plainly: Induction of monopolar mitotic spindles in african green monkey BSC1 cells assessed as kinesin-5 (Eg5) inhibition at 100 uM after 4 hrs. Type of experiment: functional, cell-based. The note with it: Chlorocebus aethiops.
The test system of experiment [10] is U2OS. Put plainly: Induction of monopolar spindles and reduction in gamma-tubulin at the centrosomes in human U2OS cells at 25 uM after 4 hrs by immunofluorescence. Type of experiment: functional, cell-based.
The test system of experiment [11] is U2OS. In words: Induction of monopolar spindles and reduction in gamma-tubulin at the centrosomes in human U2OS cells at 50 uM after 4 hrs by immunofluorescence. Format: functional, cell-based.
In experiment [12] the test system is PtK2. Put plainly: Induction of monopolar mitotic spindles in rat kangaroo PtK2 cells expressing GFP-labeled alpha-tubulin after 4 hrs. Type of experiment: functional, cell-based. The following applies: Potorous tridactylus.
The subject of experiment [13] is PtK2. Put plainly: Induction of monopolar mitotic spindles in rat kangaroo PtK2 cells expressing GFP-labeled alpha-tubulin at 6.3 uM after 4 hrs. Type of experiment: functional, cell-based. The following applies: Potorous tridactylus.
The subject of experiment [14] is PtK2. Put plainly: Induction of mitotic index in rat kangaroo PtK2 cells expressing GFP-labeled alpha-tubulin after 4 hrs. Type of experiment: functional, cell-based. The note with it: Potorous tridactylus.
Experiment [15] deals with PtK2. Put plainly: Inhibition of polo-like kinase 1 activity in rat kangaroo PtK2 cells expressing GFP-labeled alpha-tubulin assessed as phosphorylation of Cdc25c at centrosomes after 1 hr by quantitative immunofluorescence. Format: cell-based. The note with it: Potorous tridactylus.
For experiment [16], the system named is PtK2. Put plainly: Inhibition of polo-like kinase 1 activity in rat kangaroo PtK2 cells expressing GFP-labeled alpha-tubulin assessed as phosphorylation of Cdc25c at 6.3 uM after 1 hr by quantitative immunofluorescence. Format: cell-based. The following applies: Potorous tridactylus.
Experiment [17] relates to PtK2. Put plainly: Inhibition of Aurora kinase activity in rat kangaroo PtK2 cells assessed as histone H3 phosphorylation at 6.3 uM after 1 hr by quantitative fluorescence. The following applies: Potorous tridactylus. Type of experiment: cell-based.
Experiment [18] has as its system PtK2. In words: Antimitotic activity in rat kangaroo PtK2 cells expressing GFP-labeled alpha-tubulin in presence of monastrol assessed as cells remained in mitosis at 6 uM after 90 mins by phase-contrast microscopy. The following applies: Potorous tridactylus. Type of experiment: functional, cell-based.
Experiment [19] deals with PtK2. Put plainly: Inhibition of polo-like kinase 1 activity in rat kangaroo PtK2 cells expressing GFP-labeled alpha-tubulin assessed as shortening of chromosome associated microtubule fibres at 6.3 uM by spinning disk confocal microscopy in presence of 20 uM MG132. Type of experiment: cell-based. The following applies: Potorous tridactylus.
The subject of experiment [20] is PtK2. In words: Inhibition of polo-like kinase 1 activity in rat kangaroo PtK2 cells expressing GFP-labeled alpha-tubulin assessed as V-shaped chromosome at 6.3 uM by spinning disk confocal microscopy in presence of 20 uM MG132. Type of experiment: cell-based. The following applies: Potorous tridactylus.
Experiment [21] concerns PtK2. In words: Inhibition of polo-like kinase 1 activity in rat kangaroo PtK2 cells expressing GFP-labeled alpha-tubulin assessed as shortening of chromosome associated microtubule fibres at 20 uM by spinning disk confocal microscopy in presence of 20 uM MG132. The following applies: Potorous tridactylus. Format: cell-based.
Experiment [22] has as its system PtK2. In words: Inhibition of polo-like kinase 1 activity in rat kangaroo PtK2 cells expressing GFP-labeled alpha-tubulin assessed as V-shaped chromosome at 20 uM by spinning disk confocal microscopy in presence of 20 uM MG132. Type of experiment: cell-based. The note with it: Potorous tridactylus.
For experiment [23], the system named is PtK2. In words: Inhibition of polo-like kinase 1 activity in rat kangaroo PtK2 cells expressing GFP-labeled alpha-tubulin assessed as stable microtubule bundles at 6.3 uM at 20 sec time interval for 5 min by spinning disk confocal microscopy. Format: cell-based. The note with it: Potorous tridactylus.
The subject of experiment [24] is PtK2. In words: Inhibition of polo-like kinase 1 activity in rat kangaroo PtK2 cells expressing GFP-labeled alpha-tubulin assessed as interkinetochore distance at 6 uM after 45 mins. The note with it: Potorous tridactylus. Type of experiment: cell-based.
Experiment [25] concerns PtK2. In words: Change in microtubule dynamics in rat kangaroo PtK2 cells expressing GFP-labeled alpha-tubulin by replacing with PLK inhibitor- free medium. Format: functional, cell-based. The following applies: Potorous tridactylus.
For experiment [26], the system named is PtK2. In words: Induction of monopolar mitotic spindles in rat kangaroo PtK2 cells expressing GFP-labeled alpha-tubulin at 20 uM after 4 hrs. Format: functional, cell-based. The note with it: Potorous tridactylus.
For experiment [27], the system named is PtK2. In words: Inhibition of polo-like kinase 1 activity in rat kangaroo PtK2 cells expressing GFP-labeled alpha-tubulin assessed as phosphorylation of Cdc25c at 20 uM after 1 hr by quantitative immunofluorescence. The following applies: Potorous tridactylus. Type of experiment: cell-based.
Experiment [28] relates to PtK2. Put plainly: Inhibition of Aurora kinase activity in rat kangaroo PtK2 cells assessed as histone H3 phosphorylation at 25 uM after 1 hr by quantitative fluorescence. Type of experiment: cell-based. The note with it: Potorous tridactylus.
Experiment [29] concerns PtK2. Put plainly: Antimitotic activity in rat kangaroo PtK2 cells expressing GFP-labeled alpha-tubulin in presence of monastrol assessed as cells remained in mitosis at 20 uM after 90 mins by phase-contrast microscopy. Format: functional, cell-based. The following applies: Potorous tridactylus.
Experiment [30] deals with PtK2. Put plainly: Inhibition of polo-like kinase 1 activity in rat kangaroo PtK2 cells expressing GFP-labeled alpha-tubulin assessed as interkinetochore distance at 20 uM after 45 mins. Format: cell-based. The following applies: Potorous tridactylus.

Regarding `COC(=O)Nc1nc2cc(C(=O)c3cccs3)ccc2[nH]1`, the interkinetochore distance in the experiment with PtK2 [1] was 1.4 µm.

The term EC50 denotes the concentration at which the effect is half-maximal. A word on the IC50: it is the point on the concentration scale where inhibition reaches its midpoint. What is called inhibition is the percentage by which the read-out fell short of the control. Take `CC(=O)Nc1ccc(Nc2ncc([N+](=O)[O-])c(Nc3ccccc3C(=O)c3ccccc3)n2)cc1`: the result with BSC-1 [2], in the experiment with BSC-1 [3], in the experiment on BSC-1 [4], in the experiment with BSC-1 [8], in the experiment with BSC-1 [9] and with U2OS [10] was Active. Further, the result in the experiment with U2OS [11], in the experiment on PtK2 [13], in the experiment with PtK2 [18] and with PtK2 [25] was Active. Also, the EC50 in the experiment on BSC-1 [5] turned out to be 5 µM. Further, in experiment [6], the concentration for half-maximal inhibition (IC50) stood at 0.9 µM. Also, the inhibition entry in [7] was “inactive”. Moreover, the Activity entry in the experiment on PtK2 [12], in the experiment with PtK2 [14] and in the experiment on PtK2 [15] was “Dose-dependent effect” each time. Moreover, the inhibition result in the experiment with PtK2 [16], with PtK2 [19], in the experiment on PtK2 [20], in the experiment with PtK2 [21], with PtK2 [22] and with PtK2 [23] was “Active” each time. The inhibition with PtK2 [17] amounted to 20%. Moreover, in the experiment on PtK2 [24], the interkinetochore distance turned out to be 1.9 µm.

Regarding `N#Cc1cc([N+](=O)[O-])c2sc(C(N)=O)[n+]([O-])c2c1`, in experiment [6], the IC50 worked out at 8 µM. Besides, the outcome in the experiment on U2OS [10], in the experiment with U2OS [11], in the experiment with PtK2 [26] and with PtK2 [29] was Active. The Activity entry in the experiment with PtK2 [12], in the experiment with PtK2 [14] and in the experiment on PtK2 [15] was “Dose-dependent effect” each time. Besides, the inhibition result with PtK2 [27] is “Active”. Further, the inhibition with PtK2 [28] stood at 20%. Moreover, the interkinetochore distance with PtK2 [30] is 2.3 µm.
